Source: patent US11278518B2, “Methods of treatment using 4-methylumbelliferone and derivatives thereof” (The Board of Trustees of the Leland Stanford Junior …, priority 2017, dated 2022)
Entries after “also recorded” stand apart in the source; their conditions may differ.

Key:
DORmO mice = test: Onset of diabetes in DORmO mice; format: in vivo
Source text: In proof-of-principle studies, 12 candidate esters of 4-MU and 4 candidate esters of 4-MUG were generated and the conversion of these compounds into 4-MU in buffer containing bovin serum was examined. […] Compounds A and B were individually administered to 8 week old DORmO mice. Compound B, butyl-4-MUG, delayed diabetes onset by one month when compared to Compound A. In contrast, mice fed Compound A, ethyl-4-MUG, developed diabetes at 12 weeks of age, at the same time as untreated DORmO mice. […] Briefly, to determine that HA accumulates in the pancreatic islets and creates a permissive environment for autoimmune attacks during autoimmune diabetes disease progression, the DORmO double transgenic mouse model of autoimmune diabetes was used. DORmO mice predictably develop autoimmune diabetes because they are bred to have both a target antigen on their insulin producing beta-cells as well as an immune system that specifically recognizes that antigen. DORmO mice are the result of a cross between RIPmOVA mice (a strain that carries a gene specific for hen egg ovalbumin (OVA) that is only expressed on beta-cells, emulating the auto-antigen) and DO11.10 mice (a strain that carries a T-cell receptor transgene specific for OVA, emulating auto-reactive CD4+ T cells). DORmO mice spontaneously develop autoimmune insulitis starting at four weeks of age and all animals become diabetic (hyperglycemia >200 mg/dl) by 20 weeks of age (Wesley, J. D., et al., J. Immunol. 185, 4760-4768 (2010). Beginning at four weeks of age, mice were weighed weekly as well as bled via the tail vein for the determination of their blood glucose level using a Contour blood glucose meter and blood glucose monitoring strips (Bayer Healthcare). When two consecutive blood glucose readings of 250 mg/dL were recorded, animals were considered diabetic. When two consecutive blood glucose readings of 300 mg/dL were recorded, animals were euthanized. For the in vivo part the oral delivery in the drinking water was the same as for 4-MUG. […]

[1] = in vivo, cited from earlier work
ApoE-deficient mice = settings: 4-MU treatment, high-fat diet; cited from earlier work
acute lung injury = settings: 4-MU treatment; cited from earlier work
obese, diabetic mice = settings: 4-MU treatment; cited from earlier work
[2] = tested on: DORmO and NOD mouse models; settings: 4-MU treatment; cited from earlier work
[3] = tested on: collagen-induced arthritis model; settings: 4-MU treatment; cited from earlier work
[4] = tested on: Biliary Duct Ligation (BDL) model; settings: 4-MU; cited from earlier work
EAE = settings: 4-MU treatment; cited from earlier work
[5] = Serum drug concentration in mice by HPLC-MS; format: in vivo; settings: 4-MUG in drinking water at 5%, 0.325 mg/mouse/day
Experimental: The 4-MU (Alfa Aesar) was pressed into the mouse chow by TestDiet® and irradiated before shipment. This chow formulation delivered 250 mg/mouse/day, yielding a serum drug concentration of 640.3±17.2 nmol/L in mice, as measured by HPLC-MS. 4-MUG ([…]) was distributed in the drinking water of the mice at a 5% concentration which should deliver 0.325 mg/mouse/day, yielding a serum drug concentration of 357.1±72.6 ng/mL in mice, as measured by HPLC-MS. Mice were initiated on 4-MU and 4-MUG at five, eight or twelve weeks of age, unless otherwise noted, and were maintained on this diet until they were euthanized, unless otherwise noted. For analysis of Foxp3+ regulatory T cell numbers in naïve mice, mice were treated daily with 0.5 mg of 4-MU or 1.0 mg 4-MUG in 200 μl 0.08% carboxymethylcellulose in saline by intraperitoneal (i.p.) injection.

HA synthesis = test: Hyaluronan (HA) ELISA of B16F10 cell cultures, inhibition of HA synthesis; format: cell-based, murine; settings: cells cultured 24-72 hours, HA in ELISA-like assay, normalized
Experimental: B16F10 is a murine melanoma cell line. […] The cells were cultured at 37° C. temperature and an atmosphere of 95% air and 5% carbon dioxide. Cells were cultured in DMEM plus 10% FBS. For the 4-MUG ester experiments, cells were seeded in 48-well plates, at a density of 10,000 cells per well and cultured for 24-72 hours. 4-MU, 4-MUG and the 4-MUG esters were diluted 1:1000 from their stock concentration and added to the cell medium in their final μM concentrations. For the analysis, the cells and the cell supernatant were collected at the end of each experiment and stored at −20° C. until further use. 48-well plates from previous experiments were thawed and 200 μL cell lysis buffer was added to each well. Cells were incubated for 15 minutes at room temperature. The whole lysate was transferred into a 96-well v-bottom plate and centrifuged at 3500 g for 20 minutes at 4° C. After spinning 25 μL from each well was transferred into a flat-bottom 96-well plate and stored until further use. Cell lysis buffer contains Tris-HCl, EDTA, SDS, MgCl2 and Super Nucleasis®. Protein measurement was performed by using the Pierce BCA Protein Assay Kit® (Thermo Scientific) according to the manufacturer instructions. The BCA Protein assay is based on bicinchoninic acid (BCA) for the colorimetric detection and quantitation of total protein. This method combines a biuret reaction (reduction of Cu2+ to Cu1+ by protein in an alkaline medium) with a highly and selective colorimetric detection of the cuprous cation (Cu1+) with the help of bicinchoninic acid. A purple-colored reaction product is formed by the chelation of two BCA molecules with one cuprous ion. This complex has a strong absorbance at 562 nm. The identification of HA in the samples is achieved by utilizing a highly specific HA binding protein (HABP) probe that interacts with HA. […] The HA concentration in the tissue is determined by using an ELISA-like assay. […] The plate was read at 405 nm and the concentrations were calculated according to the standards.

[6] = tested on: FoxP3+ regulatory T-cells; test: Induction of FoxP3+ regulatory T-cells in vivo; settings: mice
Experimental: The 4-MU (Alfa Aesar) was pressed into the mouse chow by TestDiet® and irradiated before shipment. This chow formulation delivered 250 mg/mouse/day, yielding a serum drug concentration of 640.3±17.2 nmol/L in mice, as measured by HPLC-MS. 4-MUG (ChemImpex) was distributed in the drinking water of the mice at a 5% concentration which should deliver 0.325 mg/mouse/day, yielding a serum drug concentration of 357.1±72.6 ng/mL in mice, as measured by HPLC-MS. Mice were initiated on 4-MU and 4-MUG at five, eight or twelve weeks of age, unless otherwise noted, and were maintained on this diet until they were euthanized, unless otherwise noted. For analysis of Foxp3+ regulatory T cell numbers in naïve mice, mice were treated daily with 0.5 mg of 4-MU or 1.0 mg 4-MUG in 200 μl 0.08% carboxymethylcellulose in saline by intraperitoneal (i.p.) injection.

[7] = after 6 months of treatment; cited from earlier work

SMILES: Cc1cc(=O)oc2cc(O)ccc12 [Compound 4-MU, 4-methylumbelliferone]
- protection from diabetes (DORmO mice; 0.65% 4-MU (approximately 10x less)): only partially protective
- bioavailability ([1]; first-pass glucuronidation): 2-3%
- extraction by the liver [1]: ≤ 97%
- atherosclerosis (ApoE-deficient mice): worse atherosclerosis
- lung injury (acute lung injury): decreased or prevented lung injury
- glycemia (obese, diabetic mice): restores normoglycemia
- progression of autoimmune diabetes [2]: limit the progression
- disease scores [3]: improved disease scores
- fibrosis [4]: reduce fibrosis
- EAE disease (EAE): prevent and treat disease; also recorded: limit the progression

SMILES: Cc1cc(=O)oc2cc(O[C@@H]3O[C@H](C(=O)O)[C@@H](O)[C@H](O)[C@H]3O)ccc12 [Compound 4-MUG, 4-methylumbelliferone glucuronide]
- serum drug concentration [5]: 357.1 ± 72.6 ng/mL
- inhibition of HA synthesis (HA synthesis): inhibits HA synthesis by human cell lines as well as 4-MU; also recorded: inhibits HA synthesis as effectively as 4-MU
- fraction of Foxp3+ regulatory T-cells (induction) [6]: also has this property in vivo; also recorded: does increase; also recorded: increases
- numbers of CD3+ T-cells [6]: does not increase
- numbers of CD4+ T-cells [6]: does not increase
- numbers of CD25+ T-cells [6]: does not increase

SMILES: CCOC(=O)C1O[C@@H](Oc2ccc3c(C)cc(=O)oc3c2)C(O)[C@H](O)[C@@H]1O (stereo partly drawn) [Compound A, 4-methylumbelliferyl β-D-glucuronide ethyl ester]
- age at which mice developed diabetes (DORmO mice; 8 week old DORmO mice, 0.05% in drinking water): 12 weeks
- inhibition of HA synthesis (HA synthesis): best inhibited HA synthesis in vitro

SMILES: CCCCOC(=O)C1O[C@@H](Oc2ccc3c(C)cc(=O)oc3c2)C(O)[C@H](O)[C@@H]1O (stereo partly drawn) [Compound B]
- onset of diabetes (DORmO mice; at 1/100th the dose of 4-MU): delays the onset of diabetes
- inhibition of HA synthesis (HA synthesis): best inhibited HA synthesis in vitro

SMILES: C[C@H](CCC(=O)O)[C@H]1CC[C@H]2[C@@H]3[C@@H](O)C[C@@H]4C[C@H](O)CC[C@]4(C)[C@H]3CC[C@]12C [UDCA, ursodeoxycholic acid]
- bile concentration of UDCA [7]: up to 70%
